These results are taken from paper PMC6522510 (Nature Communications, 2019).

Read-outs that look alike come from different tables or passages of the source.

In series [1] the test system is panel of 8 AML cell lines. Briefly: Secondary dose-response HTS, whole panel. It counts as cell-based, human. As to conditions: secondary HTS (Supplementary Data 2).
Series [2] relates to CMK. Briefly: cells. As to conditions: Homo sapiens, CMK, 72 h, read-out: CMK. On the set-up: species or system AML cell lines (8); Secondary HTS, 10-point dose-response in triplicate, Cell Titer Glo viability, four-parameter fit EC50.
Series [3] deals with CHRF288-11. The series can be described thus: cells. As to conditions: 72 h, read-out: CHRF288-11. On the set-up: species or system AML cell lines (8); Secondary HTS, 10-point dose-response in triplicate, Cell Titer Glo viability, four-parameter fit EC50.
Series [4] deals with M07e. Briefly: cells. On the set-up: species or system AML cell lines (8); Secondary HTS, 10-point dose-response in triplicate, Cell Titer Glo viability, four-parameter fit EC50. As to conditions: M-07e, 72 h, read-out: M07e.
The test system of series [5] is AMKL primary AML blast samples. Briefly: Ex vivo drug treatment of primary AML blasts on mesenchymal stromal cells. It counts as cell-based. Particulars: Homo sapiens; primary blasts on MSC, 96 h.
The subject of series [6] is ML-2. The series can be described thus: cells. On the set-up: species or system AML cell lines (8); Secondary HTS, 10-point dose-response in triplicate, Cell Titer Glo viability, four-parameter fit EC50. As to conditions: Homo sapiens, ML-2, 72 h, read-out: ML-2.
For series [7], the system named is FLT3-ITD+ primary AML blast samples.
Series [8] relates to MV4-11. Briefly: cells. On the set-up: species or system AML cell lines (8); Secondary HTS, 10-point dose-response in triplicate, Cell Titer Glo viability, four-parameter fit EC50. Particulars: Homo sapiens, MV4-11, 72 h, read-out: MV4-11.
Series [9] deals with U937. Briefly: cells. On the set-up: species or system AML cell lines (8); Secondary HTS, 10-point dose-response in triplicate, Cell Titer Glo viability, four-parameter fit EC50. Particulars: Homo sapiens, U-937, 72 h, read-out: U937.
Series [10] has as its system MLLr primary AML blast samples. The series can be described thus: Ex vivo drug treatment of primary AML blasts on mesenchymal stromal cells. It counts as cell-based. Particulars: Homo sapiens; primary blasts on MSC, 96 h, range over patient samples.
Series [11] deals with MOLM-13. Briefly: Secondary dose-response HTS, Cell Titer Glo. It counts as cell-based, human. As to conditions: MOLM-13; for EC50: Homo sapiens.
The subject of series [12] is CMS. Briefly: Secondary dose-response HTS, Cell Titer Glo. The series is classed as cell-based, human. Particulars: Homo sapiens.
In a further series the test system is THP-1. The series is classed as cell-based. Particulars: Homo sapiens, 72 h, Cell Titer Glo. A general note: Cellular ATP, detected with luciferase, serves as a proxy for viable cell number.
The test system of series [13] is CMK. Briefly: Secondary dose-response HTS, Cell Titer Glo. As to conditions: Homo sapiens, CMK. It counts as cell-based, human.
Series [14] relates to CHRF288-11. The series can be described thus: Secondary dose-response HTS, Cell Titer Glo. The series is classed as cell-based, human. As to conditions: for EC50: Homo sapiens.
Series [15] deals with CHRF288-11. The series is classed as cell-based. Particulars: Homo sapiens; 72 h, Cell Titer Glo; read-out: IC50 CHRF288-11.
In series [16] the test system is MV4-11. The series is classed as cell-based. As to conditions: Homo sapiens, 72 h, Cell Titer Glo.
Series [17] deals with M07e. Briefly: Secondary dose-response HTS, Cell Titer Glo. The series is classed as cell-based, human. Particulars: Homo sapiens, M-07e.
The subject of series [18] is U937. Briefly: Secondary dose-response HTS, Cell Titer Glo. As to conditions: Homo sapiens, U-937. The series is classed as cell-based, human.
Series [19] relates to MOLM-13. It counts as cell-based. As to conditions: Homo sapiens, 72 h, Cell Titer Glo.
In series [20] the test system is CMS. The series is classed as cell-based. Particulars: Homo sapiens, 72 h, read-out: IC50 CMS.
In series [21] the test system is U937. It counts as cell-based. As to conditions: Homo sapiens, U-937; 72 h, Cell Titer Glo.
Series [22] has as its system MV4-11. The series can be described thus: Secondary dose-response HTS, Cell Titer Glo. The series is classed as cell-based, human. As to conditions: MV4-11; for EC50: Homo sapiens.
For series [23], the system named is ML-2. The series is classed as cell-based. Particulars: Homo sapiens, 72 h, Cell Titer Glo.
For the next series, the system named is ML2. Briefly: Secondary dose-response HTS, Cell Titer Glo. The series is classed as cell-based, human. As to conditions: Homo sapiens; secondary high-throughput screen; ML-2; read-out: average effective concentration, ML-2.
Another series deals with AML cell lines. The series can be described thus: Intracellular drug and phosphorylated metabolites by HPLC with liquid scintillation counting. Particulars: 2 h, 1 µM, all cell lines evaluated.
Setting [24] is: secondary high-throughput screen, read-out: average effective concentration, MOLM-13.
Setting [25] is: HTS, secondary high-throughput screen, CMS, read-out: average effective concentration, CMS.
Where [26] appears, read: HTS, secondary high-throughput screen, CHRF288-11, read-out: average effective concentration, CHRF288-11.
Where [27] appears, read: secondary high-throughput screen, M07e, read-out: average effective concentration, M07e.
Where [28] appears, read: secondary high-throughput screen, U937, read-out: average effective concentration, U937.
[29] abbreviates: secondary high-throughput screen, read-out: average effective concentration, MV4-11.
Setting [30] is: secondary high-throughput screen, read-out: average effective concentration, CMK.
The mark [31] stands for this setting: secondary high-throughput screen.

As usually defined, the IC50 is the concentration that inhibits the measured activity by half. With `COc1cc(Nc2ncc3c(n2)-c2ccc(Cl)cc2C(c2c(F)cccc2OC)=NC3)ccc1C(=O)O` [Alisertib], in [1], the “active cell lines out of 8 in HTS” value is on record as 4/8. The EC50 was 2.1 nM with CMK [2]; over 10000 nM in the series on CHRF288-11 [3]; over 10000 nM in the series with M07e [4]; over 10000 nM with ML-2 [6]; over 10000 nM in the series with MV4-11 [8]; over 10000 nM with U937 [9]. The EC50 in the series with MOLM-13 [11] (setting [24]) came to 8300 nM; with CMS [12] (setting [25]), 4000 nM. For the same molecule, the figures for the IC50 in series [5], in [7] and in series [10] were 441 nM, 8.8 to 3190 nM and 105 to 4320 nM, respectively.
On to `CC(=O)O[C@@]12CO[C@@H]1C[C@H](O)[C@@]1(C)C(=O)[C@H](O)C3=C(C)[C@@H](OC(=O)[C@H](O)[C@@H](NC(=O)OC(C)(C)C)c4ccccc4)C[C@@](O)([C@@H](OC(=O)c4ccccc4)[C@H]21)C3(C)C` [Docetaxel, docetaxel, reference compound], for which the IC50 is 3.2 nM in the series on THP-1; 10.8 nM in the series with CHRF288-11 [15]; 3 nM in the series with MV4-11 [16]; 2.2 nM in the series with MOLM-13 [19]; 19.9 nM in the series on CMS [20]; 2.1 nM with U937 [21]. In the series with ML-2 [23], this molecule displayed an IC50 of 1.5 nM. Moreover, the EC50 is 1 nM in the series on CMK [13] (read-out: average effective concentration, CMK); 500 nM in the series with CHRF288-11 [14] (setting [26]); 1 nM in the series on M07e [17] (setting [27]); 1 nM with U937 [18] (setting [28]); 1 nM in the series with MOLM-13 [11] (setting [24]); 4.4 nM in the series on CMS [12] (HTS, read-out: average effective concentration, CMS). Further, the EC50 in the series on MV4-11 [22] (setting [29]) came out at 1 nM.
Regarding `Nc1nc(F)nc2c1ncn2[C@@H]1O[C@H](CO)[C@@H](O)[C@@H]1O` [Fludarabine, fludarabine, reference compound], the IC50 in the series with THP-1 is 4120 nM; with CHRF288-11 [15], over 35000 nM; in the series with MV4-11 [16], over 15000 nM; in the series on MOLM-13 [19], 1750 nM; with CMS [20] (Cell Titer Glo), 65 nM; in the series with U937 [21], 31 nM. Besides, the IC50 in the series on ML-2 [23] came out at 5580 nM. The EC50 in the series on CMK [13] (setting [30]) was 8100 nM; in the series with M07e [17] (setting [27]) it was over 10000 nM; with U937 [18] (setting [28]), over 10000 nM; with ML2 it was over 10000 nM; with CMS [12] (setting [25]), 130 nM. In the series on CHRF288-11 [14] (secondary high-throughput screen, CHRF288-11), the “average effective concentration, CHRF288-11” value was “Inactive”. Further, in the series on MOLM-13 [11] (setting [31]), the “average effective concentration, MOLM-13” value is listed as “Inactive”. Further, the “average effective concentration, MV4-11” value with MV4-11 [22] (setting [31]) is “Inactive”.
Consider `CON(C)C(=O)N1N=C(c2cc(F)ccc2F)S[C@@]1(CCCN)c1ccccc1` [ARRY-520, reference compound], for which the “active cell lines out of 8 in HTS” value in series [1] is 3/8. Moreover, the EC50 with CHRF288-11 [14] (setting [26]), in the series on M07e [17] (setting [27]), with U937 [18] (setting [28]), in the series on ML2 and in the series with CMS [12] (setting [25]) was 1 nM throughout.
Turning to `CC[C@@H]1C(=O)N(C)c2cnc(Nc3ccc(C(=O)N[C@H]4CC[C@H](N5CCN(CC6CC6)CC5)CC4)cc3OC)nc2N1C(C)C` [Volasertib, reference compound], the “active cell lines out of 8 in HTS” value in series [1] is 7/8. The EC50 in the series on CMK [13] (setting [30]) was determined as 15 nM; in the series with CHRF288-11 [14] (setting [26]), 3200 nM; with U937 [18] (setting [28]), 1 nM; with ML2, 1 nM; in the series on CMS [12] (setting [25]), 1400 nM; in the series with MV4-11 [22] (setting [29]), 8 nM. Also, the results for the IC50 in [5], in [7] and in [10] were 353 nM, 4.6 to 931 nM and 62 to 482 nM, respectively.
Consider `Nc1ccn([C@@H]2O[C@H](COP(=O)(O)OP(=O)(O)OP(=O)(O)O)[C@@H](O)[C@@H]2O)c(=O)n1` [Ara-CTP, cytarabine triphosphate], for which, in the series on AML cell lines, the “share of the total intracellular accumulation” value is 52–65%.
Consider `CC(=O)O[C@H]1C(=O)[C@@]2(C)[C@H]([C@H](OC(=O)c3ccccc3)[C@]3(O)C[C@H](OC(=O)[C@H](O)[C@@H](NC(=O)c4ccccc4)c4ccccc4)C(C)=C1C3(C)C)[C@]1(OC(C)=O)CO[C@@H]1C[C@@H]2O` [Paclitaxel, paclitaxel], for which the IC50 in the series on THP-1 amounted to 5.4 nM; with CHRF288-11 [15] it was 24.9 nM; with MV4-11 [16], 2.1 nM; in the series with MOLM-13 [19], 3 nM; in the series on CMS [20] (Cell Titer Glo), 25.7 nM; in the series with U937 [21], 2.5 nM. The IC50 in the series on ML-2 [23] worked out at 3.5 nM.
With `Nc1nc(Cl)nc2c1ncn2[C@@H]1O[C@H](CO)[C@@H](O)[C@@H]1F` [Clofarabine, clofarabine, reference compound], the IC50 was 90 nM with THP-1; 332 nM with CHRF288-11 [15]; 71 nM in the series with MV4-11 [16]; 37 nM with MOLM-13 [19]; 80 nM in the series with CMS [20] (Cell Titer Glo); 56 nM in the series with U937 [21]. In the series on ML-2 [23], it took 173 nM to reach half-maximal inhibition (IC50). Moreover, the EC50 amounted to 5 nM in the series on CMK [13] (secondary HTS, 72 h, average of triplicate, read-out: EC50 CMK); 370 nM in the series on CHRF288-11 [14] (secondary HTS, 72 h, average of triplicate, read-out: EC50 CHRF288-11); 10 nM in the series on M07e [17] (secondary HTS, 72 h, average of triplicate, read-out: EC50 M07e); 13 nM with M07e [17] (setting [27]); 90 nM in the series with U937 [18] (secondary HTS, 72 h, average of triplicate, read-out: EC50 U937); 88 nM in the series on U937 [18] (setting [28]). Besides, the EC50 with MOLM-13 [11] (secondary HTS, 72 h, average of triplicate, read-out: EC50 MOLM-13) was found to be 50 nM; in the series with MOLM-13 [11] (setting [24]), 47 nM; in the series on CMS [12] (setting [25]), 18 nM; with CMS [12] (secondary HTS, 72 h, average of triplicate, read-out: EC50 CMS), 20 nM; with MV4-11 [22] (secondary HTS, 72 h, average of triplicate, read-out: EC50 MV4-11) it was 150 nM.
As to `C=CCn1c(=O)c2cnc(Nc3ccc(N4CCN(C)CC4)cc3)nc2n1-c1cccc(C(C)(C)O)n1` [MK-1775, reference compound], the “active cell lines out of 8 in HTS” value in [1] is given as 7/8. The EC50 stood at 210 nM in the series with CMK [13] (setting [30]); 10000 nM in the series with CHRF288-11 [14] (setting [26]); 460 nM with U937 [18] (setting [28]); 210 nM in the series on ML2; 370 nM with MOLM-13 [11] (setting [24]); 630 nM in the series with CMS [12] (setting [25]). Besides, the EC50 in the series on MV4-11 [22] (setting [29]) worked out at 210 nM. Besides, the IC50 in series [5] was over 10000 nM.
